{"source": "ChEMBL document CHEMBL1201862", "about": "“PubChem BioAssay data set” (2004)", "key": {"[1]": {"assay": "reduced cellular PGC1a acetyl-lysine signal – cell-based, cherry-picked samples, dose response (AID 720514);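 note: potency may reflect raised or lowered acetylation signal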", "format": "functional"}, "[2]": {"target": "T1, Rac GTPase-activating protein 1 (Homo sapiens, UniProt Q9H0H5)", "T1 sequence (Q9H0H5 whole entry)": "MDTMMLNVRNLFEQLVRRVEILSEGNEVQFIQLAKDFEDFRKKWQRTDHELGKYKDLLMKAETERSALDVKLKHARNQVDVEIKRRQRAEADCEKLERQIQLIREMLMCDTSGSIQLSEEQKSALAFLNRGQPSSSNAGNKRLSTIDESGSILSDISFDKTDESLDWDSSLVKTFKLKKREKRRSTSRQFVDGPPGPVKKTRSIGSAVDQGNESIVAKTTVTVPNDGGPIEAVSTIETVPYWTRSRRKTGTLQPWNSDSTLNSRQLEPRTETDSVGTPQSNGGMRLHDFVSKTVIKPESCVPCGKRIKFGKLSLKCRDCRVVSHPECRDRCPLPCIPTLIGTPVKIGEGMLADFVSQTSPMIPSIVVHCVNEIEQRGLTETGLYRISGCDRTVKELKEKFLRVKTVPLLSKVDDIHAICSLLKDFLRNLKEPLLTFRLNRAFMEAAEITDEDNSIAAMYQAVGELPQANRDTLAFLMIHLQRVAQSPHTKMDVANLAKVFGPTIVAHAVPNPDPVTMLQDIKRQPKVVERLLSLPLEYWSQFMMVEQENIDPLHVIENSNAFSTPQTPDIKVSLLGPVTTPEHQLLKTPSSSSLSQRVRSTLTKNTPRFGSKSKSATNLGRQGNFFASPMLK", "assay": "blockers of MgcRacGAP-driven Rac1 GTP hydrolysis – biochemical, ADP Hunter fluorescence, primary and confirmatory, confirmation (AID 624330)", "format": "functional"}, "[3]": {"assay": "viability loss in HeLa cells – cytotoxicity control for MgcRacGAP inhibitor project, dose response (AID 624300)", "format": "functional"}, "[4]": {"assay": "blockers of bursicon-stimulated LGR2 cAMP reporter – cell-based, HEK293, CRE-luciferase reporter, cherry pick, set 2, dose response (AID 743343);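 note: transfected cells were stimulated with diluted bursicon conditioned medium after compound addition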", "format": "functional"}, "[5]": {"target": "T2, Adenosylmethionine-8-amino-7-oxononanoate aminotransferase (Mycobacterium tuberculosis, UniProt P9WQ81)", "T2 sequence (P9WQ81 whole entry)": "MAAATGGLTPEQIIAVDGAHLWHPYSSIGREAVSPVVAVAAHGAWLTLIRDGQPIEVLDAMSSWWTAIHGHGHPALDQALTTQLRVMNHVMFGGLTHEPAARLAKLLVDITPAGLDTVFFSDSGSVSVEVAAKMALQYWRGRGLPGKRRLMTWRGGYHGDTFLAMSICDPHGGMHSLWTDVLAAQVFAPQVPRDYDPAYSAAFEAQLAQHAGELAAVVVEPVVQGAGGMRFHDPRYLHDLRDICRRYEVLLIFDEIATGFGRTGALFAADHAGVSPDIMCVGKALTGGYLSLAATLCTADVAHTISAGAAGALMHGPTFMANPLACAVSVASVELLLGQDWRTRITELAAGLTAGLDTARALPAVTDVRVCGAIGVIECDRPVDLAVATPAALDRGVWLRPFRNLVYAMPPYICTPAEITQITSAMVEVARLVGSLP", "assay": "Mycobacterium tuberculosis BioA enzyme inhibitor Measured in Biochemical System Using Plate Reader - 2163-02_Inhibitor_Dose_CherryPick_Activity.", "format": "functional, Mycobacterium tuberculosis UT205"}, "[6]": {"target": "T3, Nuclear receptor subfamily 0 group B member 1 (Homo sapiens, UniProt P51843)", "T3 sequence (P51843 whole entry)": "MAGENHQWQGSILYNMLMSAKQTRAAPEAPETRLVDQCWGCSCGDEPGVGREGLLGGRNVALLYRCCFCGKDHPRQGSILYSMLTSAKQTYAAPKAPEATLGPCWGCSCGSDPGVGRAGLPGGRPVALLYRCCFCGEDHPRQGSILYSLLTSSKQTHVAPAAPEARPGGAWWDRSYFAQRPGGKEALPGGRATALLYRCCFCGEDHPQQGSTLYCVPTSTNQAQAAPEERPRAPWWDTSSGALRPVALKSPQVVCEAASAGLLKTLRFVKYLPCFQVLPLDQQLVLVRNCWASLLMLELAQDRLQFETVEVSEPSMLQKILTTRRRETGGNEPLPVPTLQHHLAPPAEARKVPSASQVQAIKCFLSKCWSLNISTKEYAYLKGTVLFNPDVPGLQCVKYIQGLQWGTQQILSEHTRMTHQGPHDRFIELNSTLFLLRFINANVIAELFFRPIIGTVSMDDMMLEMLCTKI", "format": "functional, cell-based"}, "[7]": {"assay": "cells", "format": "functional, cell-based"}, "[8]": {"target": "Prothrombin (Homo sapiens, UniProt P00734)", "assay": "Thrombin 1536 HTS Dose Response Confirmation. [Related pubchem assays: 1046 (Thrombin 1536 HTS; hits were confirmed in this assay)]", "format": "functional"}, "[9]": {"assay": "microbe, parasite or virus in culture", "format": "functional", "settings": "Mycobacterium tuberculosis"}, "[10]": {"target": "T4, Trace amine-associated receptor 1 (Homo sapiens, UniProt Q96RJ0)", "T4 sequence (Q96RJ0 whole entry)": "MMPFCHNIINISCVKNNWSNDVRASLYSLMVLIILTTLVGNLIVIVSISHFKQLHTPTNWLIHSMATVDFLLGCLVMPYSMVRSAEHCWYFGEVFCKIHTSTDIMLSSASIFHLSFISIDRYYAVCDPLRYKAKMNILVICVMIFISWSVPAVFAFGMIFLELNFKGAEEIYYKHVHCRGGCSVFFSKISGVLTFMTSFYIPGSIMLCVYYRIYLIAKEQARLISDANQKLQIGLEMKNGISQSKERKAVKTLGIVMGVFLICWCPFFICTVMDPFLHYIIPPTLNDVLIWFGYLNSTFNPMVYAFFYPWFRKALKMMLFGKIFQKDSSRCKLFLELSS", "assay": "Fluorescence-based cell-based high throughput dose response assay to identify agonists of the human trace amine associated receptor 1 (TAAR1).", "format": "functional"}, "[11]": {"target": "T4, Trace amine-associated receptor 1", "assay": "Counterscreen for agonists of the human trace amine associated receptor 1 (hTAAR1): Fluorescence-based cell-based high throughput dose response assay to identify hTAAR1 agonist that also desensitize TAAR1 receptor response.", "format": "functional"}, "[12]": {"assay": "cells", "format": "functional, cell-based", "remark": "listed apart in the source"}, "[13]": {"assay": "cells", "format": "functional, cell-based", "remark": "listed apart in the source"}, "[14]": {"assay": "viability loss in THP-1 monocytes – THP-1 cells, cytotoxicity control for Vif-APOBEC3G degradation inhibitor project, dose response (AID 1117359)", "format": "functional", "settings": "THP-1"}, "[15]": {"target": "Nuclear receptor subfamily 5 group A member 2 (Homo sapiens, UniProt O00482)", "sequence (O00482 whole entry)": "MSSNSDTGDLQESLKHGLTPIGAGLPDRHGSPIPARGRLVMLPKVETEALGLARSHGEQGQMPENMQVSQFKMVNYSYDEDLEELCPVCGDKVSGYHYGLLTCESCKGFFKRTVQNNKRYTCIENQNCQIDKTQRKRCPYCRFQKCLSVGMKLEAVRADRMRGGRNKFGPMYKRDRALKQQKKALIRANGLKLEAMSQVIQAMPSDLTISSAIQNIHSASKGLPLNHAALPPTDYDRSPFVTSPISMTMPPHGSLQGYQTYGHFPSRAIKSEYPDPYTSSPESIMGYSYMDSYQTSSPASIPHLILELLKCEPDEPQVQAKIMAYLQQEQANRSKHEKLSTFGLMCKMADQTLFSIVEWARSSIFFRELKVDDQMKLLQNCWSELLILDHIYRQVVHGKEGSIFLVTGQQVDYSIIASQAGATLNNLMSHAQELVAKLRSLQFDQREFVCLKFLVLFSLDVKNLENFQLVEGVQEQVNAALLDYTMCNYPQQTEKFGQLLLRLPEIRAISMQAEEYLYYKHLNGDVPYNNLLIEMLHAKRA", "format": "functional, cell-based"}, "[16]": {"target": "T5, Fatty acid synthase (Homo sapiens, UniProt P49327)", "T5 sequence (P49327 whole entry)": "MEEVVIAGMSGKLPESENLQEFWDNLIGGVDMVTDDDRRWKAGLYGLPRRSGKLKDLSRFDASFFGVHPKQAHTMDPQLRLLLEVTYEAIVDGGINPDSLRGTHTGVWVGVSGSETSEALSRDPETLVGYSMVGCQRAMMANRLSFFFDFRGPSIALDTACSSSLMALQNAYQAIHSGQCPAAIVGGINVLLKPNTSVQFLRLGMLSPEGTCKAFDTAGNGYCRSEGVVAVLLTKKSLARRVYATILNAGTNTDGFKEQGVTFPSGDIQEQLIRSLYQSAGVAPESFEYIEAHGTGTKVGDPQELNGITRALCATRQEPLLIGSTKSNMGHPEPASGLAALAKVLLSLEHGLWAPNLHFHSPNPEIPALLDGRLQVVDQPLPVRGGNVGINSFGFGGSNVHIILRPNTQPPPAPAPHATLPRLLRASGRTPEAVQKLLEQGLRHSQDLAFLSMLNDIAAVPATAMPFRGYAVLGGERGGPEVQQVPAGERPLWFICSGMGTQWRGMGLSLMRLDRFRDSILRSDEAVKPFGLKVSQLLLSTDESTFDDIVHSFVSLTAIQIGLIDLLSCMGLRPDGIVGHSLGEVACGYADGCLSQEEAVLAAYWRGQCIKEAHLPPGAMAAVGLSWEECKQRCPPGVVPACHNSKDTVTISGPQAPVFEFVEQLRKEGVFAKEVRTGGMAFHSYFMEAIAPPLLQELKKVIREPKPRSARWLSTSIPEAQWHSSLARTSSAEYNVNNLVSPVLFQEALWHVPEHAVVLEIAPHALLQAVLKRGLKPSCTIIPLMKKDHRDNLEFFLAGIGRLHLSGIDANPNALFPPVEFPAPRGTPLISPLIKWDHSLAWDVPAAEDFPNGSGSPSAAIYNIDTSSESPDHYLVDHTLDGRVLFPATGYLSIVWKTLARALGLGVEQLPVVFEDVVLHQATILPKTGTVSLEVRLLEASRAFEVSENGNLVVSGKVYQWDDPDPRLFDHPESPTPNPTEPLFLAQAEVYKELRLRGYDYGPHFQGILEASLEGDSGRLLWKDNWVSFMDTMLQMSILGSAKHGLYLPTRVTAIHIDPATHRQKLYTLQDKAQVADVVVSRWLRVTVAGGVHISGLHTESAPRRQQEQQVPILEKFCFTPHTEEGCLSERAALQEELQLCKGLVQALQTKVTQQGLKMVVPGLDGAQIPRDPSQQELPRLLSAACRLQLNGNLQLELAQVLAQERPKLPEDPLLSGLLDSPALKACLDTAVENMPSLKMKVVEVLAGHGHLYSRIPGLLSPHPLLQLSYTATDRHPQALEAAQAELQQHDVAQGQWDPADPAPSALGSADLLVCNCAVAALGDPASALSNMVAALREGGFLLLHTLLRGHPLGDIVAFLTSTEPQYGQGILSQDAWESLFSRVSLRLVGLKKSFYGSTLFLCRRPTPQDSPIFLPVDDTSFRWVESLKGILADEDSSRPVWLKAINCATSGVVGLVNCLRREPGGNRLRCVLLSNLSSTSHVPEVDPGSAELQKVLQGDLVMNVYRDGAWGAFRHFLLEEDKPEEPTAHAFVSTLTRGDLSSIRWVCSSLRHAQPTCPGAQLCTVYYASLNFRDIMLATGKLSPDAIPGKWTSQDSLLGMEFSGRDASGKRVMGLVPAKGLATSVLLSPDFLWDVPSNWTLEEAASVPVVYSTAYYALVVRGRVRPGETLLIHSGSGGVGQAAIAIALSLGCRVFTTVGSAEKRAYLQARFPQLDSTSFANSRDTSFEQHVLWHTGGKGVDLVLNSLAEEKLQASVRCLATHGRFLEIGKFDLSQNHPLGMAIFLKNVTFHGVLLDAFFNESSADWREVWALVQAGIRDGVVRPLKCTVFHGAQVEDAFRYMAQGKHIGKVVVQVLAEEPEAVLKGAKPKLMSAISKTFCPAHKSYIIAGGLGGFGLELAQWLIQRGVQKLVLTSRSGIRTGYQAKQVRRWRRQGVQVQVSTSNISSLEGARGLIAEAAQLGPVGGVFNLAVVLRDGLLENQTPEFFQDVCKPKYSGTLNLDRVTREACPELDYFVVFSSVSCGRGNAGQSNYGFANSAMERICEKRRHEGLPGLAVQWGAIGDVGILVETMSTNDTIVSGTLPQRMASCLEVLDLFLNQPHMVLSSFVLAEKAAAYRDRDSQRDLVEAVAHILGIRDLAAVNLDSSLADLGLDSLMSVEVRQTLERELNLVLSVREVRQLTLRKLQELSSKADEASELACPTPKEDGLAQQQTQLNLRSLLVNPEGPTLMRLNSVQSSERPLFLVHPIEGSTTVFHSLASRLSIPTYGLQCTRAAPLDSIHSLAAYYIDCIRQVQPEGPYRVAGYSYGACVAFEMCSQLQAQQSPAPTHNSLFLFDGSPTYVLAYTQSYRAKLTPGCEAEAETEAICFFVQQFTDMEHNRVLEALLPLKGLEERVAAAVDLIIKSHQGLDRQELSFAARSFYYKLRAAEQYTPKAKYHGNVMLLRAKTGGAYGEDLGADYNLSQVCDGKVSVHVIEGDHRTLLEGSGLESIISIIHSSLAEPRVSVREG", "assay": "inhibition of human FAS-TE enzyme activity – biochemical, endpoint fluorescence intensity, uHTS hits, dose response (AID 624327);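 note: fluorescence from hydrolysis of an O-methyl fluorescein acyl ester substrate by the enzyme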", "format": "functional"}, "[17]": {"target": "Steroidogenic factor 1 (Homo sapiens, UniProt Q13285)", "sequence (Q13285 whole entry)": "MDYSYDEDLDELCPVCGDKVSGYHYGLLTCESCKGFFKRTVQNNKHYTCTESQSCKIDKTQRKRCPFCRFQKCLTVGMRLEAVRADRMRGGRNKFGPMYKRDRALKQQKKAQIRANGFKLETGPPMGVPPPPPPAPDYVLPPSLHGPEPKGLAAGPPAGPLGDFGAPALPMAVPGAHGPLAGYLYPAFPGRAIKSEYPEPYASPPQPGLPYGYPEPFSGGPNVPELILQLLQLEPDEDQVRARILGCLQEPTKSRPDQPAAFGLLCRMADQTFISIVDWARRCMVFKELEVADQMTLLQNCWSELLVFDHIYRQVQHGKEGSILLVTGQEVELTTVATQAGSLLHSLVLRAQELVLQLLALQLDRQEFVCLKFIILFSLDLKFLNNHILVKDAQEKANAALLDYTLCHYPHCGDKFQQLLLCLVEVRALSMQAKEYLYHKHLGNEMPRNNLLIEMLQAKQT", "assay": "Counterscreen for inverse agonists of the liver receptor homolog-1 (LRH-1; NR5A2): Luminescence-based cell-based high throughput dose response assay to identify inverse agonists of the Steroidogenic Factor 1 Nuclear Receptor (SF1; NR5A1).", "format": "functional"}, "[18]": {"assay": "nonselective StAR promoter luciferase inhibitors – cell-based, luminescence, luciferase reporter, counter-screen for LRH-1 inverse agonist project, dose response (AID 651969)", "format": "functional"}, "[19]": {"target": "T5, Fatty acid synthase", "assay": "inhibition of human FAS-TE enzyme activity – biochemical, kinetic fluorescence intensity, dose response (AID 624326);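 note: rate of fluorescence rise from hydrolysis of a fluorogenic O-methyl fluorescein ester substrate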", "format": "functional"}}, "note": "Activity calls are given as the source filed them.", "data": [{"compound": "COc1cc(CNCCN2CCOCC2)ccc1OCc1ccc(Cl)cc1Cl", "values": [{"measurement": "AC50", "setting": "[1]", "result": "17.3 µM (active)"}]}, {"compound": "COc1cc(/C=C2\\C(=O)N(C)C(=S)N2C)ccc1O", "values": [{"measurement": "IC50", "setting": "[2]", "result": "31.9 µM (active)"}, {"measurement": "CC50", "setting": "[3]", "result": "100 µM (active)"}]}, {"compound": "CCc1ccc2ncc(S(=O)(=O)c3ccc(C)c(C)c3)c(N3CCCC3)c2c1", "values": [{"measurement": "AC50", "setting": "[4]", "result": "48.2 µM (active)"}]}, {"compound": "O=C(C1CCCN(S(=O)(=O)c2cccnc2)C1)N1CCn2c1nc1ccccc12", "note": "(stereo not drawn)", "values": [{"measurement": "AC50", "setting": "[5]", "result": "14 µM (active)"}]}, {"compound": "CN1CCN(C(=O)c2cc(COc3ccccc3)on2)[C@@H](c2ccccc2)C1", "values": [{"measurement": "IC50", "setting": "[6]", "result": "> 67.6 µM (inactive)"}, {"measurement": "IC50", "setting": "[7]", "result": "> 67.6 µM (inactive)"}]}, {"compound": "COc1ccc(C2c3c(-c4cc(Cl)c(C)cc4O)n[nH]c3C(=O)N2Cc2cccnc2)cc1OC", "note": "(stereo not drawn)", "values": [{"measurement": "IC50", "setting": "[8]", "result": "> 50 µM (not active)"}, {"measurement": "AC50", "setting": "[5]", "result": "0.102 µM (active)"}]}, {"compound": "CCCCOP(=O)(OCCCC)C(Nc1ccc(C(=O)OCC)cc1)c1ccncc1", "note": "(stereo not drawn)", "values": [{"measurement": "CC50", "setting": "[9]", "result": "> 40 µM (active)"}]}, {"compound": "CNCC(C)c1ccccc1", "note": "(stereo not drawn)", "values": [{"measurement": "EC50", "setting": "[10]", "result": "598 nM (active)"}, {"measurement": "IC50", "setting": "[11]", "result": "3.54 µM (active)"}, {"measurement": "IC50", "setting": "[12]", "result": "> 29.9 µM (inactive)"}, {"measurement": "EC50", "setting": "[13]", "result": "> 29.9 µM (inactive)"}]}, {"compound": "CCCC(C)NC(=O)CSCc1ccc(OC)cc1", "note": "(stereo not drawn)", "values": [{"measurement": "CC50", "setting": "[14]", "result": "> 40 µM (active)"}]}, {"compound": "O=C(Nc1ccc(Cc2ccncc2)cc1)c1cccc([N+](=O)[O-])c1", "values": [{"measurement": "IC50", "setting": "[15]", "result": "35.9 µM (inactive)"}, {"measurement": "IC50", "setting": "[16]", "result": "7.76 µM (active)"}, {"measurement": "IC50", "setting": "[17]", "result": "1.33 µM (active)"}, {"measurement": "IC50", "setting": "[18]", "result": "35.9 µM (inactive)"}, {"measurement": "IC50", "setting": "[19]", "result": "10.5 µM (active)"}]}, {"compound": "COc1cccc(-n2c(S)nnc2-c2cccc(S(=O)(=O)N(C)C)c2)c1", "values": [{"measurement": "AC50", "setting": "[1]", "result": "39 µM (active)"}]}, {"compound": "Clc1ccc2c(c1)C(c1ccccc1Cl)=NCc1nnc(N3CCN(CCOc4ccccc4)CC3)n1-2", "values": [{"measurement": "CC50", "setting": "[9]", "result": "> 40 µM (active)"}]}, {"compound": "COc1cccc(C(=O)/C=C2\\Sc3ccccc3N2C)c1", "values": [{"measurement": "CC50", "setting": "[9]", "result": "> 40 µM (active)"}]}]}
